Patent US10954549B2, “Detection and classification of an anticoagulant using a clotting assay” (Haemonetics Corporation, priority 2014, dated 2021)

Columns and labels:
citrated whole blood [1] = assay: rTEG with ecarin test of spiked blood; type: biochemical, human
Source text: (§1) The TEG clotting assay was used to determine if low, normal, and high doses of dabigatran, rivaroxaban, and apixaban could be detected in blood spiked with these compounds. Three oral anticoagulants (OAC), namely dabigatran, rivaroxaban, and apixaban, were spiked into blood obtained from 14 healthy volunteer human donors. For each OAC tested, citrated blood from three donors was spiked with three different concentrations of the active drug (i.e., the compound). The spiked blood samples and control samples spiked with diluent were tested with the TEG® 5000 Thrombelastograph® Hemostasis Analyzer (Haemonetics Corporation, Braintree, Mass., USA) using the Kaolin and RapidTEG® reagents (Haemonetics). Each sample was run in triplicate. All samples were tested with and without ecarin (purchased from Enzyme Research Laboratories, South Bend, IN). This study was IRB approved and all donors were over 18 and signed informed consent forms.
(§2) 340 μL of the citrated blood sample was added to the cup with these two reagents, and the contents of the cup were mixed 3 times by drawing the contents of the cup up into the pipette and redispensing it into the cup. The test was started immediately after mixing and allowed to run until the MA parameter had defined. The rTEG with ecarin test was performed as the rTEG test above, using 20 μL of an ecarin/CaCl2 solution (0.16M CaCl2; 19EU/mL ecarin).

citrated whole blood [2] = assay: RapidTEG (rTEG) test of blood spiked with anticoagulant; type: biochemical, human; conditions: for TEG ACT parameter versus control group: all tested concentrations (except rivaroxaban 22 ng/mL)
Source text: as §1
The RapidTEG (rTEG) test incorporated both tissue factor and kaolin to generate the conventional kaolin parameters as well as the TEG-ACT parameter, which is measured in seconds. The TEG-ACT is equivalent to the Activated Clotting Time (see Chavez J. J. et al., Anesth. Analg. 99:1290-1294, 2004) and has a normal range of 86 to 118 seconds. A prolonged TEG-ACT time indicates slower clot formation. In addition, velocity curves derived from the above mentioned kaolin and rTEG tests were plotted using TEG software. These curves represent the speed of clot propagation (MRTG, Maximum Rate of Thrombus Generation; and TMRTG, Time to Maximum Rate of Thrombus Generation) (see FIG. 3B).
For the RapidTEG (rTEG) test, the reagent was reconstituted with 20 μL diluent water, and allowed to stand for 5 minutes per manufacturer instructions. Ten μL of this reconstituted reagent was added to the TEG cup with 20 μl 0.2M CaCl2 for recalcification.
as §2

citrated whole blood [3] = assay: TEG kaolin with ecarin test of spiked blood; type: biochemical, human; conditions: for R value with ecarin versus reference range: Example 2, three dosage levels, kaolin reference range about 5 to about 10 minutes; for R time in the presence versus absence of ecarin: FIGS. 8A-8C; for MA values with ecarin relative to samples run without ecarin: kaolin test; for R, K and TMRTG values on addition of ecarin to the kaolin test / α and MRTG values on addition of ecarin to the kaolin test: treated and control groups
Source text: as §1
For the kaolin test, 1 mL of citrated blood sample was mixed with kaolin and 340 microliters (μL) of this blood was added to a TEG cup containing 20 μL of 0.2M CaCl2 for recalcification. The kaolin with ecarin test was performed in a similar fashion, using 20 μL of an ecarin/CaCl2 solution (0.16 M CaCl2; 19 EU/mL ecarin).
Ecarin is derived from the venom of the saw-scaled viper, Echis carinatus. Ecarin activates prothrombin (the precursor of thrombin—see FIG. 5). This activation of prothrombin by ecarin produces meizothrombin, a prothrombin-thrombin intermediate which has a low level of procoagulant enzymatic activity.
Healthy human volunteers (who are not being administered any anticoagulant), donated blood. Following donation, the blood collected from the donors (which was added to citrate to prevent clotting) was divided into portions, and portions of the blood were spiked with either nothing, dabigatran, or rivaroxaban. The portions were then assayed using thromboelastography, including assays performed in the presence of ecarin.

[4] = system: blood from healthy volunteers; assay: Thromboelastography R time of spiked blood in the presence of the ecarin reagent; type: biochemical, human
Protocol: Blood from healthy volunteers known not to be taking any oral anticoagulant and without any other significant health issues are analyzed using the FXa or the Ecarin reagent in a TEG® hemostasis analyzer.
The ecarin reagent is used to classify the type of anticoagulant. The R-time from the Ecarin assay is used to differentiate between the two available classes (Direct thrombin inhibitors and anti-Xa inhibitors). This ecarin reagent may be used in combination with the results from the FXa reagent to make a decision. A reference range will be generated from a sample healthy volunteer population (not on any drug) for this reagent.
The R-time generated from multiple donors was used to construct a reference range. Blood was spiked with either direct thrombin inhibitors or anti-Xa(s) at different concentrations and analyzed using the FXa reagent or the Ecarin reagent. The drug concentrations chosen represent the published therapeutic ranges for these two classes of drugs. This assay was repeated in multiple donors to account for possible donor variations.
The R time (in minutes) was compared to the R time obtained from donor blood with no oral anticoagulant (who is known not to be administered with an anticoagulant) treated with the ecarin reagent and measured using thromboelastography.
The R time (in minutes) was compared to the R time obtained from donor blood with no oral anticoagulant (i.e., taken from a patient who is known not to be administered with an anticoagulant) treated with the ecarin reagent and measured using thromboelastography.

[5] = cited from earlier work
[6] = system: blood from healthy volunteers; assay: Thromboelastography R time of spiked blood in the presence of the FXa reagent; type: biochemical, human; conditions: in vitro spiking, increasing concentrations
Protocol: Blood from healthy volunteers known not to be taking any oral anticoagulant and without any other significant health issues are analyzed using the FXa or the Ecarin reagent in a TEG® hemostasis analyzer. The FXa reagent (i.e., the Factor Xa reagent) is used to detect the presence (or absence) of an anticoagulant in the blood component being tested. In absence of any oral anticoagulant, the FXa reagent will accelerate the clotting process and result in a very short R-time. In presence of direct thrombin inhibitors and/or anti-Factor Xa anticoagulant(s), the process is slowed down and will cause elongation of the R-time. This difference in R-time is utilized to detect the presence of the oral anticoagulant. The R-time generated from multiple donors was used to construct a reference range. Blood was spiked with either direct thrombin inhibitors or anti-Xa(s) at different concentrations and analyzed using the FXa reagent or the Ecarin reagent. The drug concentrations chosen represent the published therapeutic ranges for these two classes of drugs. This assay was repeated in multiple donors to account for possible donor variations.

With `O=C(NC[C@H]1CN(c2ccc(N3CCOCC3=O)cc2)C(=O)O1)c1ccc(Cl)s1` [rivaroxaban, Rivaroxaban] as the molecule, how does the “TEG-ACT times on addition of ecarin to the RapidTEG test” value (citrated whole blood [1]) read?
The value was “significantly decreases”.

And the “TMRTG times on addition of ecarin to the RapidTEG test” value (citrated whole blood [1])?
The value was “significantly decreases”.

And the “RapidTEG α angle when ecarin was added” value (citrated whole blood [1]; any of the studied concentrations)?
The value was “did not change”.

What about the “RapidTEG K values when ecarin was added” value (citrated whole blood [1]; middle concentration (89 ng/mL)) of the same molecule?
The value was “significantly decreased”.

What about the “K, α and MRTG parameters versus control or between studied concentrations” value (citrated whole blood [2]) of the same molecule?
Its value is “did not show any statistical difference”.

What about the “TEG ACT parameter, distinguishing between concentrations” value (citrated whole blood [2]) of the same molecule?
Its value is “good dose response curve”.

What about the “TMRTG parameter sensitivity to presence of drug” value (citrated whole blood [2]) of the same molecule?
The value was “sensitive to the presence”.

What about the “MA values versus control” value (citrated whole blood [2]; all studied concentrations) of the same molecule?
The value was “did not change”.

And the “TEG ACT parameter versus control group” value (citrated whole blood [2])?
Its value is “significantly different”.

What about the “ACT time versus non-spiked blood sample” value (citrated whole blood [2]; medium and higher concentrations) of the same molecule?
The value was “significantly higher”.

What about the “R value with ecarin versus reference range” value (citrated whole blood [3]) of the same molecule?
Its value is “dramatically shortened and all three dosage levels fall outside of the control reference range”.

And the “R time in the presence versus absence of ecarin” value (citrated whole blood [3])?
The value was “equivalent and significant shortening of R time”.

What about the “MA values with ecarin relative to samples run without ecarin” value (citrated whole blood [3]) of the same molecule?
The value was “did not change”.

And the “R, K and TMRTG values on addition of ecarin to the kaolin test” value (citrated whole blood [3])?
Its value is “significant decrease”.

And the “α and MRTG values on addition of ecarin to the kaolin test” value (citrated whole blood [3])?
Its value is “significant increase”.

What about the “R time versus reference range of approximately 1 to 4.1 minutes” value ([4]; 50-350 ng/ml, ecarin) of the same molecule?
Its value is “within the reference range”.

And the half-lives compared ([5]; in vivo)?
The half-lives compared was “shorter half-lives than dabigatran”.

What about the Cmax ([5]; oral dose of 10 mg) of the same molecule?
The Cmax was 141 ng/mL.

And the “R-time compared to the reference range, FXa reagent” value [6]?
The value was “dose dependent elongation of the R-time”.

For dabigatran, which “TEG-ACT times on addition of ecarin to the RapidTEG test” value (citrated whole blood [1]) is on record?
Its value is “significantly decreases”.

And the “TMRTG times on addition of ecarin to the RapidTEG test” value (citrated whole blood [1])?
Its value is “significantly decreases”.

What about the “MA value on addition of ecarin to the RapidTEG test” value (citrated whole blood [1]; 200 ng/mL, still within normal range) of the same molecule?
Its value is “significantly decreased”.

And the “RapidTEG α angle when ecarin was added” value (citrated whole blood [1]; lowest concentrations (200 ng/mL, 50 ng/mL))?
The value was “decrease of the angle value”.

And the “RapidTEG K values when ecarin was added” value (citrated whole blood [1]; middle concentration (200 ng/mL))?
Its value is “increased”.

What about the “TEG ACT parameter, distinguishing between concentrations” value (citrated whole blood [2]) of the same molecule?
Its value is “good dose response curve”.

What about the “TMRTG parameter sensitivity to presence of drug” value (citrated whole blood [2]) of the same molecule?
The value was “sensitive to the presence”.

And the “K parameter versus control” value (citrated whole blood [2]; 200 ng/mL and 50 ng/mL)?
The value was “statistically different from control”.

What about the “K parameter versus control” value (citrated whole blood [2]; 500 ng/mL) of the same molecule?
The value was “not for the concentration of 500 ng/mL”.

What about the “α parameter versus control” value (citrated whole blood [2]; 500 ng/mL and 50 ng/mL) of the same molecule?
Its value is “statistically different from control”.

What about the “MA values versus control group” value (citrated whole blood [2]; 500 ng/mL, still within normal range) of the same molecule?
Its value is “significantly different from the control group”.

What about the MRTG parameter sensitivity (citrated whole blood [2]; 500, 200, 50 ng/mL) of the same molecule?
The MRTG parameter sensitivity was “sensitive to the two lowest concentrations”.

And the “TMRTG parameter between concentrations” value (citrated whole blood [2]; 500 vs 200 ng/mL, 200 vs 50 ng/mL)?
The value was “able to differentiate between concentrations”.

And the “K and α parameters, highest concentration versus other concentrations” value (citrated whole blood [2]; 500 vs 200 ng/mL, 500 vs 50 ng/mL)?
The value was “able to differentiate”.

And the “ACT time versus non-spiked blood sample” value (citrated whole blood [2]; all concentrations)?
Its value is “significantly higher”.

And the “TEG ACT parameter versus control group” value (citrated whole blood [2])?
The value was “significantly different”.

What about the “R, kaolin test with ecarin” value (citrated whole blood [3]; 500, 200, 50 ng/mL) of the same molecule?
The value was “only a dose related decrease of the R”.

What about the “R value with ecarin versus reference range” value (citrated whole blood [3]) of the same molecule?
Its value is “shortened and approaches the normal reference range”.

And the “R time in the presence versus absence of ecarin” value (citrated whole blood [3])?
Its value is “concentration dependent decrease in R time”.

And the “MA values with ecarin relative to samples run without ecarin” value (citrated whole blood [3])?
Its value is “did not change”.

What about the “R, K and TMRTG values on addition of ecarin to the kaolin test” value (citrated whole blood [3]) of the same molecule?
The value was “significant decrease”.

And the “α and MRTG values on addition of ecarin to the kaolin test” value (citrated whole blood [3])?
Its value is “significant increase”.

What about the “R time versus untreated R time of unspiked donor blood” value ([4]; 50 ng/ml, donor 126, ecarin reagent) of the same molecule?
The value was “two times longer”.

What about the “R time relative to the reference range of 3.1 minutes” value ([4]; 50 ng/ml, donors 117, 127, and 146, ecarin) of the same molecule?
The value was “at least 1.25 times”.

And the “R time relative to the collective reference range of 3.1 minutes” value ([4]; 150 ng/ml, all four donors, ecarin)?
Its value is “at least 1.25 times”.

What about the maximum plasma concentration ([5]; 150 mg oral dose) of the same molecule?
The maximum plasma concentration was 110 ng/mL.

And the half-life ([5]; lengthened in patients with renal dysfunction)?
The half-life was 12 to 17 h.

And the “R-time compared to the reference range, FXa reagent” value [6]?
Its value is “dose dependent elongation of the R-time”.
